Measurements published in ChEMBL document CHEMBL3774345, “Synthesis of new diarylamides with pyrimidinyl pyridine scaffold and evaluation of their anti-proliferative effect on cancer cell lines” (Bioorg Med Chem Lett, 2016).

Experiments:
Assay type in all cases: functional
SK-MEL-28 = experiment: Cytotoxicity against human SK-MEL-28 cells assessed as cell growth at 10^-6 M after 24 hrs by SRB assay; conditions: SK-MEL-28, 24 h, read-out: Activity
[1] = Cytotoxicity against human BT549 cells assessed as cell growth at 10^-5 M after 24 hrs by SRB assay; conditions: BT-549, 24 h, read-out: Activity
[2] = Cytotoxicity against human SF268 cells assessed as cell growth at 10^-8 M after 24 hrs by SRB assay; conditions: SF-268, 24 h, read-out: Activity
786-0 [3] = experiment: Cytotoxicity against human 786-0 cells assessed as cell growth at 10^-7 M after 24 hrs by SRB assay; conditions: 786-0, 24 h, read-out: Activity
Malme-3M = experiment: Cytotoxicity against human MALME-3M cells assessed as cell growth at 10^-5 M after 24 hrs by SRB assay; conditions: read-out: Activity
A498 = experiment: Cytotoxicity against human A498 cells assessed as cell growth at 10^-8 M after 24 hrs by SRB assay; conditions: A498, 24 h, read-out: Activity
[4] = Cytotoxicity against human RPMI8226 cells assessed as cell growth at 10^-8 M after 24 hrs by SRB assay; conditions: RPMI-8226, 24 h, read-out: Activity
[5] = Cytotoxicity against human NCI-ADR-RES cells assessed as cell growth at 10^-7 M after 24 hrs by SRB assay; conditions: read-out: Activity
[6] = Cytotoxicity against human UACC62 cells assessed as cell growth at 10^-5 M after 24 hrs by SRB assay; conditions: UACC-62, 24 h, read-out: Activity
[7] = Cytotoxicity against human UO31 cells assessed as cell growth at 10^-7 M after 24 hrs by SRB assay; conditions: UO-31, 24 h, read-out: Activity
NCI-H460 = experiment: Cytotoxicity against human NCI-H460 cells after 24 hrs by SRB assay; conditions: NCI-H460, 24 h
MDA-MB-435 = experiment: Cytotoxicity against human MDA-MB-435 cells assessed as cell growth at 10^-4 M after 24 hrs by SRB assay; conditions: MDA-MB-435, 24 h, read-out: Activity
[8] = Cytotoxicity against human IGROV1 cells assessed as cell growth at 10^-8 M after 24 hrs by SRB assay; conditions: IGROV-1, 24 h, read-out: Activity
[9] = Cytotoxicity against human Hs 578T cells assessed as cell growth at 10^-7 M after 24 hrs by SRB assay; conditions: read-out: Activity
[10] = Cytotoxicity against human HOP62 cells assessed as cell growth at 10^-8 M after 24 hrs by SRB assay; conditions: HOP-62, 24 h, read-out: Activity
[11] = Cytotoxicity against human HCT116 cells assessed as cell growth at 10^-4 M after 24 hrs by SRB assay; conditions: HCT-116, 24 h, read-out: Activity
[12] = Cytotoxicity against human LOXIMVI cells assessed as cell growth at 10^-4 M after 24 hrs by SRB assay; conditions: LOX IMVI, read-out: Activity
[13] = Cytotoxicity against human OVCAR3 cells assessed as cell growth at 10^-8 M after 24 hrs by SRB assay; conditions: OVCAR-3, 24 h, read-out: Activity
SR = experiment: Cytotoxicity against human SR cells assessed as cell growth at 10^-6 M after 24 hrs by SRB assay; conditions: read-out: Activity
[14] = Cytotoxicity against human HCT116 cells assessed as cell growth at 10^-5 M after 24 hrs by SRB assay; conditions: HCT-116, 24 h, read-out: Activity
786-0 [15] = experiment: Cytotoxicity against human 786-0 cells assessed as cell growth at 10^-4 M after 24 hrs by SRB assay; conditions: 786-0, 24 h, read-out: Activity
[16] = Cytotoxicity against human NCI-ADR-RES cells assessed as cell growth at 10^-5 M after 24 hrs by SRB assay; conditions: read-out: Activity
ACHN = experiment: Cytotoxicity against human ACHN cells assessed as cell growth at 10^-7 M after 24 hrs by SRB assay; conditions: read-out: Activity
U-251 = experiment: Cytotoxicity against human U251 cells assessed as cell growth at 10^-5 M after 24 hrs by SRB assay; conditions: U-251, 24 h, read-out: Activity
[17] = Cytotoxicity against human PC3 cells assessed as cell growth at 10^-7 M after 24 hrs by SRB assay; conditions: PC-3, 24 h, read-out: Activity
[18] = Cytotoxicity against human SW620 cells after 24 hrs by SRB assay; conditions: SW-620, 24 h
[19] = Cytotoxicity against human RPMI8226 cells assessed as cell growth at 10^-5 M after 24 hrs by SRB assay; conditions: RPMI-8226, 24 h, read-out: Activity
[20] = Cytotoxicity against human SKOV3 cells assessed as cell growth at 10^-6 M after 24 hrs by SRB assay; conditions: SK-OV-3, 24 h, read-out: Activity
[21] = Cytotoxicity against human Caki1 cells assessed as cell growth at 10^-7 M after 24 hrs by SRB assay; conditions: CAKI-1, 24 h, read-out: Activity
[22] = Cytotoxicity against human HCT116 cells after 24 hrs by SRB assay; conditions: HCT-116, 24 h
MCF7 = experiment: Cytotoxicity against human MCF7 cells assessed as cell growth at 10^-5 M after 24 hrs by SRB assay; conditions: MCF7, 24 h, read-out: Activity
[23] = Cytotoxicity against human OVCAR3 cells assessed as cell growth at 10^-4 M after 24 hrs by SRB assay; conditions: OVCAR-3, 24 h, read-out: Activity
[24] = Cytotoxicity against human SKOV3 cells after 24 hrs by SRB assay; conditions: SK-OV-3, 24 h
HT-29 = experiment: Cytotoxicity against human HT-29 cells assessed as cell growth at 10^-7 M after 24 hrs by SRB assay; conditions: HT-29, 24 h, read-out: Activity
[25] = Cytotoxicity against human Hs 578T cells assessed as cell growth at 10^-4 M after 24 hrs by SRB assay; conditions: read-out: Activity
[26] = Cytotoxicity against human SF268 cells assessed as cell growth at 10^-7 M after 24 hrs by SRB assay; conditions: SF-268, 24 h, read-out: Activity
K562 = experiment: Cytotoxicity against human K562 cells assessed as cell growth at 10^-8 M after 24 hrs by SRB assay; conditions: K562, 24 h, read-out: Activity
[27] = read-out: LC50 (the source's name)
[28] = read-out: pLC50 (the source's name) (converted)

O=C(Nc1cc(-c2cccnc2)nc(NCCCN2CCOCC2)n1)c1cc(Br)cc(C(F)(F)F)c1
growth at 1 µM (SK-MEL-28): 89% | growth at 10 µM [1]: 19% | growth at 0.01 µM [2]: 97% | growth at 0.1 µM (786-0 [3]): 91% | growth at 10 µM (Malme-3M): -72% | growth at 0.01 µM (A498): 91% | growth at 0.01 µM [4]: 103% | growth at 0.1 µM [5]: 99% | growth at 10 µM [6]: -50% | growth at 0.1 µM [7]: 90% | GI50 (NCI-H460; read-out: GI50): 2970 nM | CC50 (NCI-H460; [27]): 44.1 µM | TGI (NCI-H460; read-out: TGI): 8.94 µM | GI50 (NCI-H460; read-out: pGI50 (converted)): 2950 nM | CC50 (NCI-H460; [28]): 43.7 µM | TGI (NCI-H460; read-out: pTGI (converted)): 8.91 µM | growth at 100 µM (MDA-MB-435): -100% | growth at 0.01 µM [8]: 103% | growth at 0.1 µM [9]: 94% | growth at 0.01 µM [10]: 94% | growth at 100 µM [11]: -88% | growth at 100 µM [12]: -93% | growth at 0.01 µM [13]: 105% | growth at 1 µM (SR): 85% | growth at 10 µM [14]: -44% | growth at 100 µM (786-0 [15]): -87% | growth at 10 µM [16]: -4% | growth at 0.1 µM (ACHN): 100% | growth at 10 µM (U-251): -57% | growth at 0.1 µM [17]: 95% | GI50 ([18]; read-out: GI50): 2250 nM | CC50 [18, 27]: 20.1 µM | TGI ([18]; read-out: TGI): 5.48 µM | GI50 ([18]; read-out: pGI50 (converted)): 2240 nM | CC50 [18, 28]: 20 µM | TGI ([18]; read-out: pTGI (converted)): 5.62 µM | growth at 10 µM [19]: -1% | growth at 1 µM [20]: 97% | growth at 0.1 µM [21]: 90% | GI50 ([22]; read-out: GI50): 2090 nM | CC50 [22, 27]: 13.7 µM | TGI ([22]; read-out: TGI): 4.81 µM | GI50 ([22]; read-out: pGI50 (converted)): 2090 nM | CC50 [22, 28]: 13.8 µM | TGI ([22]; read-out: pTGI (converted)): 4.79 µM | growth at 10 µM (MCF7): -3% | growth at 100 µM [23]: -100% | GI50 ([24]; read-out: GI50): 7.26 µM | CC50 [24, 27]: 44.9 µM | TGI ([24]; read-out: TGI): 19.9 µM | GI50 ([24]; read-out: pGI50 (converted)): 7.24 µM | CC50 [24, 28]: 44.7 µM | TGI ([24]; read-out: pTGI (converted)): 20 µM | growth at 0.1 µM (HT-29): 102% | growth at 100 µM [25]: -35% | growth at 0.1 µM [26]: 94% | growth at 0.01 µM (K562): 107%
